Test results as given in patent US20240090503A1, “FUNGICIDAL OXADIAZOLES AND THEIR MIXTURES” (FMC CORPORATION, priority 2020, published 2024).
Like-named read-outs stand apart in the source and are kept apart here.

Assays:
[1] = tested on: Puccinia recondita f. sp. tritici (the causal agent of wheat leaf rust); test: Test C: preventive spray on wheat seedlings, wheat leaf rust, visual disease rating; assay type: in vivo; conditions: for pest or weed control at 10 µg/mL: Puccinia recondita, 168 h, read-out: Test C disease control rating
Excerpt: (§1) General protocol for preparing test suspensions for Tests A-D: the test compounds were first dissolved in acetone in an amount equal to 3% of the final volume and then suspended at the desired concentration (in ppm) in acetone and purified water (50/50 mix by volume) containing 250 ppm of the surfactant PEG400 (polyhydric alcohol esters). The resulting test suspensions were then used in Tests A-D.
(§2) The test suspension was sprayed to the point of run-off on wheat seedlings. The following day the seedlings were inoculated with a spore suspension of Puccinia recondita f. sp. tritici; (the causal agent of wheat leaf rust) and incubated in a saturated atmosphere at 20° C. for 24 h, and then moved to a growth chamber at 20° C. for 6 days, after which time visual disease ratings were made.
(§3) The test results for Tests A-C presented in Table A below for compounds of Formula 1 illustrate the fungicidal activity of component (a) contributing to the plant disease control utility of compositions comprising component (a) in combination with component (b) according to the present invention. In the Table, a rating of 100 indicates 100% disease control and a rating of 0 indicates no disease control (relative to the controls). A dash (-) indicates the compound was not tested. The test suspensions were sprayed at the concentration listed in the column “Rate in ppm”, unless otherwise indicated. An asterisk “*” next to the rating indicates a 250 ppm test suspension was used, a double asterisk “**” next to the rating indicates a 100 ppm test suspension was used, and a triple asterisk “***” next to the rating indicates a 50 ppm test suspension was used.

[2] = tested on: Phakopsora pachyrhizi (the causal agent of Asian soybean rust); test: Test A: preventive spray on soybean seedlings, Asian soybean rust, visual disease rating; assay type: in vivo; conditions: for pest or weed control at 10 µg/mL: Phakopsora pachyrhizi, 216 h, read-out: Test A disease control rating
Excerpt: as §1
as §2, with “soybean” for “wheat”, “Phakopsora pachyrhizi” for “Puccinia recondita f. sp. tritici;”, “Asian soybean” for “wheat leaf”, “22°” for “20°”, “h” for “h,”, “8” for “6”
as §3

[3] = test suspension 50 ppm, wheat seedlings
[4] = test suspension 50 ppm, soybean seedlings
[5] = test suspension 10 ppm, wheat seedlings
[6] = test suspension 10 ppm, soybean seedlings, 100 = 100% disease control, 0 = no control
[7] = 10 ppm test suspension, wheat seedlings, 100 = 100% disease control, 0 = no control
[8] = 10 ppm test suspension, soybean seedlings, 100 = 100% disease control, 0 = no control
[9] = 50 ppm test suspension, wheat seedlings, 100 = 100% disease control, 0 = no control
[10] = 50 ppm test suspension, soybean seedlings, 100 = 100% disease control, 0 = no control

Structure (SMILES): CCOC(=O)c1cc(C)nn1Cc1ccc(-c2noc(C(F)(F)F)n2)cc1 [compound 109]
- Test C disease control rating [1, 3]: 77%
- Test A disease control rating [2, 4]: 100%

Structure (SMILES): FC(F)(F)c1nc(-c2ccc(Cn3cc4c(Cl)cc(Br)cc4n3)cc2)no1 [compound 54]
- Test C disease control rating [1, 5]: 68%
- Test A disease control rating [2, 6]: 99%

Structure (SMILES): Cc1cc(C(=O)OCC#N)nn1Cc1ccc(-c2noc(C(F)(F)F)n2)cc1 [compound 185]
- Test C disease control rating [1, 5]: 98%
- Test A disease control rating [2, 6]: 100%

Structure (SMILES): CCOC(=O)c1cnn(CCOc2ccc(-c3noc(C(F)(F)F)n3)cc2)c1 [compound 308]
- Test C disease control rating [1, 5]: 0%
- Test A disease control rating [2, 6]: 0%

Structure (SMILES): CC(C)(C)c1ccn(Cc2ccc(-c3noc(C(F)(F)F)n3)cc2)n1 [compound 98]
- Test C disease control rating [1, 3]: 68%
- Test A disease control rating [2, 4]: 99%

Structure (SMILES): Cc1cccc2c1cnn2Cc1ccc(-c2noc(C(F)(F)F)n2)cc1 [compound 100]
- Test C disease control rating [1, 5]: 86%
- Test A disease control rating [2, 6]: 100%

Structure (SMILES): O=C(OCc1ccccn1)c1cnn(Cc2ccc(-c3noc(C(F)(F)F)n3)cc2)c1 [compound 479]
- Test C disease control rating [1, 7]: 100%
- Test A disease control rating [2, 8]: 100%

Structure (SMILES): CCOC(=O)c1c(C)nn(Cc2ccc(-c3noc(C(F)(F)F)n3)cc2)c1C [compound 66]
- Test C disease control rating ([1]; test suspension 255 ppm, wheat seedlings): 100%
- Test A disease control rating ([2]; test suspension 255 ppm, soybean seedlings): 100%

Structure (SMILES): FC(F)(F)c1nc(-c2ccc(Cn3ccc(Br)n3)s2)no1 [compound 72]
- Test C disease control rating [1, 3]: 100%
- Test A disease control rating [2, 4]: 99%

Structure (SMILES): FC(F)(F)c1nc(-c2ccc(Cn3cc4cc(Br)cnc4n3)cc2)no1 [compound 414]
- Test C disease control rating [1, 7]: 100%
- Test A disease control rating [2, 8]: 100%

Structure (SMILES): CNC(=O)c1nn(Cc2ccc(-c3noc(C(F)(F)F)n3)cc2)c2ccccc12 [compound 45]
- Test C disease control rating [1, 5]: 99%
- Test A disease control rating [2, 6]: 100%

Structure (SMILES): C#CCON=Cc1cnn(Cc2ccc(-c3noc(C(F)(F)F)n3)cc2)c1 [compound 387]
- Test C disease control rating [1, 7]: 99%
- Test A disease control rating [2, 8]: 100%

Structure (SMILES): N#CC(C#N)NC(=O)c1coc(Cc2ccc(-c3noc(C(F)(F)F)n3)cc2)n1 [compound 203]
- Test C disease control rating [1, 5]: 86%
- Test A disease control rating [2, 6]: 100%

Structure (SMILES): CCOC(=O)c1cnn(C(C)c2ccc(-c3noc(C(F)(F)F)n3)s2)c1 (stereo not shown) [compound 246]
- Test C disease control rating [1, 5]: 100%
- Test A disease control rating [2, 6]: 100%

Structure (SMILES): O=C(OCC1CC1)c1cnn(Cc2ccc(-c3noc(C(F)(F)F)n3)cc2)c1 [compound 411]
- Test C disease control rating [1, 7]: 100%
- Test A disease control rating [2, 8]: 100%

Structure (SMILES): COC(=O)c1ccc2c(cnn2Cc2ccc(-c3noc(C(F)(F)F)n3)cc2)c1 [compound 48]
- Test C disease control rating [1, 5]: 89%
- Test A disease control rating [2, 6]: 100%

Structure (SMILES): C=CCOC(=O)c1cnn(Cc2ccc(-c3noc(C(F)(F)F)n3)s2)c1 [compound 199]
- Test C disease control rating [1, 5]: 100%
- Test A disease control rating [2, 6]: 100%

Structure (SMILES): CCON=Cc1cnn(Cc2ccc(-c3noc(C(F)(F)F)n3)cc2)c1 [compound 384]
- Test C disease control rating [1, 7]: 100%
- Test A disease control rating [2, 8]: 100%

Structure (SMILES): CON=C(C)COC(=O)c1cnn(Cc2ccc(-c3noc(C(F)(F)F)n3)cc2)c1 [compound 350]
- Test C disease control rating [1, 5]: 99%
- Test A disease control rating [2, 6]: 100%

Structure (SMILES): N#CCCCOC(=O)c1cnn(Cc2ccc(-c3noc(C(F)(F)F)n3)cc2)c1 [compound 274]
- Test C disease control rating [1, 5]: 100%
- Test A disease control rating [2, 6]: 100%

Structure (SMILES): CC(C)NC(=O)c1cnn(Cc2ccc(-c3noc(C(F)(F)F)n3)cc2)c1 [compound 63]
- Test C disease control rating [1, 5]: 100%
- Test A disease control rating [2, 6]: 100%

Structure (SMILES): Cc1c2cc(Br)ccc2nn1Cc1ccc(-c2noc(C(F)(F)F)n2)cc1 [compound 52]
- Test C disease control rating [1, 5]: 80%
- Test A disease control rating [2, 6]: 99%

Structure (SMILES): COC(=O)c1cccc2nn(Cc3ccc(-c4noc(C(F)(F)F)n4)cc3)cc12 [Compound 36, methyl 2-[[4-[5-(trifluoromethyl)-1,2,4-oxadiazol-3-yl]phenyl]methyl]-2H-indazole-4-carboxylate]
- pest or weed control at 10 µg/mL [1, 5]: 100%
- pest or weed control at 10 µg/mL [2, 6]: 100%

Structure (SMILES): FC(F)(F)c1nc(-c2ccc(Cn3cc4ncccc4n3)cc2)no1 [compound 409]
- Test C disease control rating [1, 7]: 100%
- Test A disease control rating [2, 8]: 100%

Structure (SMILES): C=CC(F)(F)OC(=O)c1cnn(Cc2ccc(-c3noc(C(F)(F)F)n3)cc2)c1 [compound 168]
- Test C disease control rating [1, 5]: 100%
- Test A disease control rating [2, 6]: 100%

Structure (SMILES): CCOC(=O)c1cc(C(C)C)nn1Cc1ccc(-c2noc(C(F)(F)F)n2)cc1 [compound 82]
- Test C disease control rating [1, 5]: 0%
- Test A disease control rating [2, 6]: 0%

Structure (SMILES): CC(C#N)OC(=O)c1cnn(Cc2ccc(-c3noc(C(F)(F)F)n3)cc2)c1 (stereo not shown) [compound 300]
- Test C disease control rating [1, 5]: 9%
- Test A disease control rating [2, 6]: 94%

Structure (SMILES): O=[N+]([O-])c1cnn(Cc2ccc(-c3noc(C(F)(F)F)n3)cc2)c1 [compound 382]
- Test C disease control rating [1, 7]: 96%
- Test A disease control rating [2, 8]: 100%

Structure (SMILES): Cc1cc(C(=O)N(C)C)nn1Cc1ccc(-c2noc(C(F)(F)F)n2)cc1 [compound 182]
- Test C disease control rating [1, 5]: 100%
- Test A disease control rating [2, 6]: 100%

Structure (SMILES): O=Cc1cnn(Cc2ccc(-c3noc(C(F)(F)F)n3)s2)c1 [compound 197]
- Test C disease control rating [1, 5]: 98%
- Test A disease control rating [2, 6]: 99%

Structure (SMILES): COC(=O)C1(NC(=O)c2cnn(Cc3ccc(-c4noc(C(F)(F)F)n4)cc3)c2)CC1 [compound 172]
- Test C disease control rating [1, 5]: 99%
- Test A disease control rating [2, 6]: 100%

Structure (SMILES): CN1CCCC1COC(=O)c1cnn(Cc2ccc(-c3noc(C(F)(F)F)n3)cc2)c1 (stereo not shown) [compound 340]
- Test C disease control rating [1, 5]: 94%
- Test A disease control rating [2, 6]: 100%

Structure (SMILES): O=C(OCC#Cc1ccccc1)c1cnn(Cc2ccc(-c3noc(C(F)(F)F)n3)cc2)c1 [compound 299]
- Test C disease control rating [1, 5]: 86%
- Test A disease control rating [2, 6]: 100%

Structure (SMILES): FC(F)(F)c1nc(-c2ccc(Cn3ccc(Br)n3)cc2)no1 [compound 97]
- Test C disease control rating [1, 3]: 100%
- Test A disease control rating [2, 4]: 99%

Structure (SMILES): C=C(C#N)COC(=O)c1cnn(Cc2ccc(-c3noc(C(F)(F)F)n3)cc2)c1 [compound 486]
- Test C disease control rating [1, 7]: 89%
- Test A disease control rating [2, 8]: 100%

Structure (SMILES): CCCON=Cc1cnn(Cc2ccc(-c3noc(C(F)(F)F)n3)cc2)c1 [compound 385]
- Test C disease control rating [1, 7]: 100%
- Test A disease control rating [2, 8]: 100%

Structure (SMILES): O=C(NCCCl)c1coc(Cc2ccc(-c3noc(C(F)(F)F)n3)cc2)n1 [Compound 204, N-(2-chloroethyl)-2-[[4-[5-(trifluoromethyl)-1,2,4-oxadiazol-3-yl]phenyl]methyl]-4-oxazolecarboxamide]
- pest or weed control at 10 µg/mL [1]: 100%
- pest or weed control at 10 µg/mL [2]: 100%

Structure (SMILES): CCOC(=O)c1cnn(CS(=O)(=O)Cc2ccc(-c3noc(C(F)(F)F)n3)cc2)c1 [compound 243]
- Test C disease control rating [1, 5]: 85%
- Test A disease control rating [2, 6]: 98%

Structure (SMILES): CCOC(=O)c1cnn(C[S+]([O-])Cc2ccc(-c3noc(C(F)(F)F)n3)cc2)c1 (stereo not shown) [compound 242]
- Test C disease control rating [1, 5]: 99%
- Test A disease control rating [2, 6]: 100%

Structure (SMILES): COC(=O)c1cnn(CCCc2ccc(-c3noc(C(F)(F)F)n3)cc2)c1 [compound 427]
- Test C disease control rating [1, 9]: 67%
- Test A disease control rating [2, 10]: 100%

Structure (SMILES): CN(C)C(=O)C1=NOC(Cc2ccc(-c3noc(C(F)(F)F)n3)s2)C1 (stereo not shown) [compound 460]
- Test C disease control rating [1, 9]: 99%
- Test A disease control rating [2, 10]: 100%

Structure (SMILES): Cc1cc(C(=O)O)nn1Cc1ccc(-c2noc(C(F)(F)F)n2)cc1 [compound 179]
- Test C disease control rating [1, 5]: 9%
- Test A disease control rating [2, 6]: 98%

Structure (SMILES): CNC(=O)C1=NOC(Cc2ccc(-c3noc(C(F)(F)F)n3)s2)C1 (stereo not shown) [compound 368]
- Test C disease control rating [1, 3]: 100%
- Test A disease control rating [2, 4]: 100%

Structure (SMILES): C=C(Cl)COC(=O)c1cnn(Cc2ccc(-c3noc(C(F)(F)F)n3)cc2)c1 [compound 482]
- Test C disease control rating [1, 7]: 100%
- Test A disease control rating [2, 8]: 100%

Structure (SMILES): Nc1cnn(Cc2ccc(-c3noc(C(F)(F)F)n3)cc2)c1 [compound 381]
- Test C disease control rating [1, 7]: 0%
- Test A disease control rating [2, 8]: 0%

Structure (SMILES): O=C(OCCCCl)c1cnn(Cc2ccc(-c3noc(C(F)(F)F)n3)cc2)c1 [compound 448]
- Test C disease control rating [1, 7]: 100%
- Test A disease control rating [2, 8]: 100%

Structure (SMILES): CCCOC(=O)c1cnn(Cc2ccc3cc(-c4noc(C(F)(F)F)n4)ccc3c2)c1 [compound 416]
- Test C disease control rating [1, 9]: 0%
- Test A disease control rating [2, 10]: 77%
